In US12692256B2, “Salts and crystalline forms of a TAAR1 agonist” (Hoffmann-La Roche Inc., priority 2020, dated 2026):
Entries after “also recorded” stand apart in the source; their conditions may differ. Structures can show the parent of a compound that is named as a salt.

Assays:
[1] = Dynamic Vapour Sorption (DVS) hygroscopicity; type: physicochemical; settings: for Hygroscopicity: increase in mass when relative humidity is raised from 0%-RH to 90%-RH at 25° C.; for Hygroscopicity, weight increase: 0%-RH to 90%-RH at 25° C.
Description: For each salt formation experiment 5-ethyl-4-methyl-N-[4-[(2S) morpholin-2-yl]phenyl]-1H-pyrazole-3-carboxamide (approx. 450 mg) was dissolved in dioxane (approx. 90 mL) at elevated temperature (approx. 90° C.) in a 100 mL glass vial. The clear solution was then cooled to 60° C. (to approx. 40° C. for adipic acid) prior to the addition of approx. 1.1 equivalents (approx. 0.55 equivalents for sulfuric acid) of a 0.5 M (0.2 M for fumaric acid) stock solution in dioxane of the respective acid under agitation. The reaction mixture was then allowed to reach ambient temperature passively and further agitated overnight. In the cases of adipic acid, the solvent was partially evaporated at this stage to increase the yield. The solid residue was collected by filtration and rinsed with approx. 2 mL of dioxane. A sample of the wet product was analyzed by XRPD. The remainder of the product was dried in a vacuum tray dryer at 50° C./<10 mbar for 2 days prior to analysis by XRPD, DSC, TGA, and, if appropriate, also by DVS.
Moisture sorption/desorption data were collected on a DVS Advantage, a DVS Adventure, or a DVS Intrinsic (SMS Surface Measurements Systems) moisture balance system. The sorption/desorption isotherms were measured stepwise in a range from 0%-RH to 90%-RH at typically 25° C. A weight change of typically <0.001%/min was chosen as criterion to switch to the next level of relative humidity (with a maximum equilibration time of typically 24 hours, if the weight change criterion was not met). The data were corrected for the initial moisture content of the samples by taking the weight after drying of the samples at 0%-RH as zero point. The hygroscopicity of a given substance is characterized (by close analogy with the European Pharmacopoeia) by the increase in mass when the relative humidity is raised from 0%-RH to 90%-RH at 25° C.: […]

Aqueous solubility = type: physicochemical
Description: Aqueous solubility was determined by suspending sufficient compound in water water to give a maximum final concentration of 100 mg/mL. The solution was stirred for 24 hours at room temperature (25° C.±5° C.) on a magnetic stirrer using a magnetic stir bar. The final pH of the suspension was measured after 24 hours with a standard pH meter. The suspension was filtered by centrifugation through a ≤0.45 μm PVDF filter. The filtrate was then diluted 1:500 using a solution of ethanol: water (1:1). Quantification was by HPLC using a previously developed HPLC method (Table 4). A standard curve with a concentration range from 0.001 mg/mL-0.3 mg/ml. The solubility was automatically calculated using the peak area of the main peak in the chromatogram.
Aqueous solubility was determined by suspending sufficient compound in water to give a maximum final concentration of ≥10 mg/mL of the parent free-form of the compound. The suspension was equilibrated at 25° C. for 24 hours then the pH was measured. The suspension was then filtered through a glass fibre C filter. The filtrate was then diluted by an appropriate factor e.g. 101. Quantitation was by HPLC with reference to a standard solution of approximately 0.25 mg/mL in DMSO. Different volumes of the standard, diluted and undiluted sample solutions were injected. […]

[2] = crystalline Form A, between 0-90% RH

Row | Hygroscopicity, weight increase ([1]; re-crystallized salt forms) | Hygroscopicity ([1]; re-crystallized salt forms) | Compound | Hygroscopicity ([1]; crude salt forms) | further results
1 |  |  | CCc1[nH]nc(C(=O)Nc2ccc([C@H]3CNCCO3)cc2)c1C [Glycolic acid, 5-ethyl-4-methyl-N-[4-[(2S)morpholin-2-yl]phenyl]-1H-pyrazole-3-carboxamide] | Very hygroscopic; also recorded: (deliquescent) (deliquescent: sufficient water is adsorbed to form a liquid) | 
2 |  |  | CCc1[nH]nc(C(=O)Nc2ccc([C@H]3CNCCO3)cc2)c1C [Citric acid, 5-ethyl-4-methyl-N-[4-[(2S)morpholin-2-yl]phenyl]-1H-pyrazole-3-carboxamide] | Very hygroscopic; also recorded: (deliquescent) (deliquescent: sufficient water is adsorbed to form a liquid) | 
3 | (<0.1%-m/m | Non-hygroscopic | CCc1[nH]nc(C(=O)Nc2ccc([C@H]3CNCCO3)cc2)c1C [Hydrochloric acid, 5-ethyl-4-methyl-N-[4-[(2S)morpholin-2-yl]phenyl]-1H-pyrazole-3-carboxamide] |  | Hygroscopicity, weight increase ([1]; crude salt forms): (0.5%-m/m weight
4 | (<0.1%-m/m | Non-hygroscopic | CCc1[nH]nc(C(=O)Nc2ccc([C@H]3CNCCO3)cc2)c1C [p-Toluenesulfonic acid, 5-ethyl-4-methyl-N-[4-[(2S)morpholin-2-yl]phenyl]-1H-pyrazole-3-carboxamide] |  | 
5 | (0.1%-m/m | Non-hygroscopic | CCc1[nH]nc(C(=O)Nc2ccc([C@H]3CNCCO3)cc2)c1C [Sulfuric acid, 5-ethyl-4-methyl-N-[4-[(2S)morpholin-2-yl]phenyl]-1H-pyrazole-3-carboxamide] |  | 
6 | (0.2%-m/m |  | CCc1[nH]nc(C(=O)Nc2ccc([C@H]3CNCCO3)cc2)c1C [Phosphoric acid, 5-ethyl-4-methyl-N-[4-[(2S)morpholin-2-yl]phenyl]-1H-pyrazole-3-carboxamide] |  | 
7 | (0.2%-m/m |  | CCc1[nH]nc(C(=O)Nc2ccc([C@H]3CNCCO3)cc2)c1C [Adipic acid, 5-ethyl-4-methyl-N-[4-[(2S)morpholin-2-yl]phenyl]-1H-pyrazole-3-carboxamide] |  | 
8 | (0.4%-m/m |  | CCc1[nH]nc(C(=O)Nc2ccc([C@H]3CNCCO3)cc2)c1C [L(+)-Tartaric acid, 5-ethyl-4-methyl-N-[4-[(2S)morpholin-2-yl]phenyl]-1H-pyrazole-3-carboxamide] |  | 
9 |  |  | CCc1[nH]nc(C(=O)Nc2ccc([C@H]3CNCCO3)cc2)c1C [Methanesulfonic acid, 5-ethyl-4-methyl-N-[4-[(2S)morpholin-2-yl]phenyl]-1H-pyrazole-3-carboxamide] | Hygroscopic | phase transformation (relative humidity) ([1]; crude salt form, at 25° C.): at >80%-RH at; Hygroscopicity, weight increase ([1]; crude salt forms): (8.5%-m/m weight
10 |  |  | CCc1[nH]nc(C(=O)Nc2ccc([C@H]3CNCCO3)cc2)c1C [5-ethyl-4-methyl-N-[4-[(2S)morpholin-2-yl]phenyl]-1H-pyrazole-3-carboxamide, mono hydrochloric acid salt] |  | pH of saturated aqueous solution (Aqueous solubility; saturated aqueous solution after 24 hours): 5.3; solubility at 24 h (Aqueous solubility; water, thermodynamic from solid, saturated aqueous solution, 24 hours at 25° C., pH 5.3): 52.8 mg/mL; relative humidity at which rate of water uptake was observed to increase ([1]; crystalline Form A): > 80 % RH; hysteresis (DVS) [1, 2]: no hysteresis; mass uptake (DVS) [1, 2]: < 0.1%
